Experimental data as given in paper PMC12892976, “Alkylation-based optimization of antifungal FPPS inhibitors yields a potent, broad-spectrum lipophilic zoledronate derivative” (mBio, 2025).
Values after ≈ are worked out from the molar mass of the structure shown.

Tests used:
Assay type in all cases: cell-based
[1] = system: Cryptococcus bacillisporus; assay: MIC broth microdilution (CLSI); details: Cryptococcus bacillisporus NIH179
Experimental: (§1) Antifungal susceptibility was determined by broth microdilution according to the CLSI guidelines described in M27-Ed4 ([16]).

Cryptococcus tetragattii = assay: MIC broth microdilution (CLSI); details: Cryptococcus tetragattii WM779
Experimental: as §1

[2] = system: Cryptococcus deneoformans; assay: MIC broth microdilution (CLSI); details: Cryptococcus deneoformans JEC21
Experimental: as §1

Fusarium oxysporum [3] = assay: MIC broth microdilution (CLSI); details: Fusarium oxysporum 07-200-3012
Experimental: as §1

Lomentospora prolificans = assay: MIC broth microdilution (CLSI); details: Lomentospora prolificans 80-16-101-2445
Experimental: as §1

Candida tropicalis [4] = assay: MIC broth microdilution (CLSI); details: Candida tropicalis M230640
Experimental: as §1

[5] = system: Aspergillus frankstonensis; assay: MIC broth microdilution (CLSI); details: Aspergillus frankstonensis DTO 341-F3
Experimental: as §1

Epidermophyton floccosum = assay: MIC broth microdilution (CLSI); details: Epidermophyon floccosum R-113
Experimental: as §1

Mucor circinelloides = assay: checkerboard drug interaction (FICI, MICc);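 further: simplified diagonal checkerboard screen pairing antifungals with FPPS inhibitors, FICI calculated under the Loewe additivity model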
Experimental: (§2) Drug interactions between antifungals and FPPS inhibitors were investigated using a simplified checkerboard diagonal screening method ([45]). […] FICIs were determined according to the Loewe additivity model ([17]).

Fusarium oxysporum [6] = assay: checkerboard drug interaction (FICI, MICc);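 further: simplified diagonal checkerboard screen pairing antifungals with FPPS inhibitors, FICI calculated under the Loewe additivity model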
Experimental: as §2

Candida auris = assay: checkerboard drug interaction (FICI, MICc);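 further: simplified diagonal checkerboard screen pairing antifungals with FPPS inhibitors, with FICI computed under the Loewe additivity model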
Experimental: as §2

Candida parapsilosis = assay: checkerboard drug interaction (FICI, MICc);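 further: simplified diagonal checkerboard screen pairing antifungals with FPPS inhibitors, with FICI computed under the Loewe additivity model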
Experimental: as §2

Candida tropicalis [7] = assay: checkerboard drug interaction (FICI, MICc);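 further: simplified diagonal checkerboard screen of antifungal plus FPPS inhibitor combinations, with FICI computed by the Loewe additivity model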
Experimental: as §2

Candida dubliniensis = assay: checkerboard drug interaction (FICI, MICc);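 further: simplified diagonal checkerboard screen pairing antifungals with FPPS inhibitors, FICI calculated under the Loewe additivity model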
Experimental: as §2

Question: With `O=P(O)(O)C(O)(Cn1ccnc1)P(=O)(O)O` [ZOL, zoledronate] as the molecule, how does the “MIC / MEC” value [1] read?
Answer: The value was 128 mg/L (≈ 470 µM).

Question: And the “MIC / MEC” value (Cryptococcus tetragattii)?
Answer: Its value is 64 mg/L (≈ 235 µM).

Question: And the “MIC / MEC” value [2]?
Answer: The value was 128 mg/L (≈ 470 µM).

Question: What about the “MIC / MEC” value (Fusarium oxysporum [3]) of the same molecule?
Answer: The value was greater than 256 mg/L.

Question: And the “MIC / MEC” value (Lomentospora prolificans)?
Answer: Its value is greater than 256 mg/L.

Question: And the “MIC / MEC” value (Candida tropicalis [4])?
Answer: The value was 128 mg/L (≈ 470 µM).

Question: And the “MIC / MEC” value [5]?
Answer: Its value is 128 mg/L (≈ 470 µM).

Question: And the “MIC / MEC” value (Epidermophyton floccosum)?
Answer: Its value is 64 mg/L (≈ 235 µM).

Question: What about the FICI (Mucor circinelloides; 5FC:ZOL) of the same molecule?
Answer: Its FICI is no less than 4.

Question: And the FICI (Mucor circinelloides; AMB:ZOL)?
Answer: Its FICI is 3.

Question: And the FICI (Mucor circinelloides; CAS:ZOL)?
Answer: The FICI was 1.

Question: What about the FICI (Mucor circinelloides; FLC:ZOL) of the same molecule?
Answer: Its FICI is 0.38.

Question: What about the FICI (Mucor circinelloides; ITR:ZOL) of the same molecule?
Answer: Its FICI is 0.25.

Question: And the FICI (Mucor circinelloides; KET:ZOL)?
Answer: Its FICI is 0.75.

Question: What about the FICI (Mucor circinelloides; VOR:ZOL) of the same molecule?
Answer: The FICI was 0.63.

Question: And the “bisphosphonate MICc” value (Mucor circinelloides; ZOL with 5FC)?
Answer: The value was 64.

Question: What about the “bisphosphonate MICc” value (Mucor circinelloides; ZOL with AMB) of the same molecule?
Answer: The value was 128.

Question: What about the “bisphosphonate MICc” value (Mucor circinelloides; ZOL with CAS) of the same molecule?
Answer: The value was 32.

Question: What about the “bisphosphonate MICc” value (Mucor circinelloides; ZOL with FLC) of the same molecule?
Answer: Its value is 16.

Question: And the “bisphosphonate MICc” value (Mucor circinelloides; ZOL with ITR)?
Answer: Its value is 8.

Question: And the “bisphosphonate MICc” value (Mucor circinelloides; ZOL with KET)?
Answer: Its value is 16.

Question: And the “bisphosphonate MICc” value (Mucor circinelloides; ZOL with VOR)?
Answer: The value was 8.

Question: What about the FICI (Fusarium oxysporum [6]; 5FC:ZOL) of the same molecule?
Answer: Its FICI is no less than 4.

Question: What about the FICI (Fusarium oxysporum [6]; AMB:ZOL) of the same molecule?
Answer: Its FICI is 0.63.

Question: What about the FICI (Fusarium oxysporum [6]; CAS:ZOL) of the same molecule?
Answer: The FICI was 2.5.

Question: What about the FICI (Fusarium oxysporum [6]; FLC:ZOL) of the same molecule?
Answer: Its FICI is 0.75.

Question: What about the FICI (Fusarium oxysporum [6]; ITR:ZOL) of the same molecule?
Answer: The FICI was 0.5.

Question: What about the FICI (Fusarium oxysporum [6]; KET:ZOL) of the same molecule?
Answer: The FICI was 0.75.

Question: What about the FICI (Fusarium oxysporum [6]; VOR:ZOL) of the same molecule?
Answer: The FICI was 1.02.

Question: And the “bisphosphonate MICc” value (Fusarium oxysporum [6]; ZOL with 5FC)?
Answer: Its value is 256.

Question: What about the “bisphosphonate MICc” value (Fusarium oxysporum [6]; ZOL with AMB) of the same molecule?
Answer: The value was 64.

Question: What about the “bisphosphonate MICc” value (Fusarium oxysporum [6]; ZOL with CAS) of the same molecule?
Answer: Its value is 256.

Question: What about the “bisphosphonate MICc” value (Fusarium oxysporum [6]; ZOL with FLC) of the same molecule?
Answer: Its value is 256.

Question: And the “bisphosphonate MICc” value (Fusarium oxysporum [6]; ZOL with ITR)?
Answer: Its value is 128.

Question: What about the “bisphosphonate MICc” value (Fusarium oxysporum [6]; ZOL with KET) of the same molecule?
Answer: The value was 256.

Question: What about the “bisphosphonate MICc” value (Fusarium oxysporum [6]; ZOL with VOR) of the same molecule?
Answer: The value was 8.

Question: What about the FICI (Candida auris; 5FC:ZOL) of the same molecule?
Answer: The FICI was 1.5.

Question: And the FICI (Candida auris; AMB:ZOL)?
Answer: The FICI was 1.13.

Question: And the FICI (Candida auris; CAS:ZOL)?
Answer: Its FICI is 1.25.

Question: What about the FICI (Candida auris; FLC:ZOL) of the same molecule?
Answer: Its FICI is 0.38.

Question: What about the FICI (Candida auris; ITR:ZOL) of the same molecule?
Answer: Its FICI is 0.63.

Question: And the FICI (Candida auris; KET:ZOL)?
Answer: Its FICI is 0.5.

Question: What about the FICI (Candida auris; VOR:ZOL) of the same molecule?
Answer: The FICI was 0.63.

Question: And the “bisphosphonate MICc” value (Candida auris; ZOL with 5FC)?
Answer: Its value is 128.

Question: What about the “bisphosphonate MICc” value (Candida auris; ZOL with AMB) of the same molecule?
Answer: The value was 16.

Question: And the “bisphosphonate MICc” value (Candida auris; ZOL with CAS)?
Answer: The value was 32.

Question: What about the “bisphosphonate MICc” value (Candida auris; ZOL with FLC) of the same molecule?
Answer: The value was 32.

Question: What about the “bisphosphonate MICc” value (Candida auris; ZOL with ITR) of the same molecule?
Answer: The value was 16.

Question: What about the “bisphosphonate MICc” value (Candida auris; ZOL with KET) of the same molecule?
Answer: The value was 32.

Question: And the “bisphosphonate MICc” value (Candida auris; ZOL with VOR)?
Answer: Its value is 16.

Question: And the FICI (Candida parapsilosis; 5FC:ZOL)?
Answer: Its FICI is 1.

Question: What about the FICI (Candida parapsilosis; AMB:ZOL) of the same molecule?
Answer: Its FICI is 1.5.

Question: What about the FICI (Candida parapsilosis; CAS:ZOL) of the same molecule?
Answer: The FICI was 0.75.

Question: And the FICI (Candida parapsilosis; FLC:ZOL)?
Answer: The FICI was 0.38.

Question: And the FICI (Candida parapsilosis; ITR:ZOL)?
Answer: Its FICI is 0.5.

Question: And the FICI (Candida parapsilosis; KET:ZOL)?
Answer: The FICI was 0.53.

Question: What about the FICI (Candida parapsilosis; VOR:ZOL) of the same molecule?
Answer: The FICI was 1.21.

Question: What about the “bisphosphonate MICc” value (Candida parapsilosis; ZOL with 5FC) of the same molecule?
Answer: Its value is 64.

Question: What about the “bisphosphonate MICc” value (Candida parapsilosis; ZOL with AMB) of the same molecule?
Answer: The value was 64.

Question: And the “bisphosphonate MICc” value (Candida parapsilosis; ZOL with CAS)?
Answer: Its value is 32.

Question: What about the “bisphosphonate MICc” value (Candida parapsilosis; ZOL with FLC) of the same molecule?
Answer: Its value is 32.

Question: And the “bisphosphonate MICc” value (Candida parapsilosis; ZOL with ITR)?
Answer: The value was 32.

Question: And the “bisphosphonate MICc” value (Candida parapsilosis; ZOL with KET)?
Answer: The value was 4.

Question: What about the “bisphosphonate MICc” value (Candida parapsilosis; ZOL with VOR) of the same molecule?
Answer: Its value is 32.

Question: And the FICI (Candida tropicalis [7]; 5FC:ZOL)?
Answer: The FICI was 0.75.

Question: What about the FICI (Candida tropicalis [7]; AMB:ZOL) of the same molecule?
Answer: Its FICI is 2.

Question: What about the FICI (Candida tropicalis [7]; CAS:ZOL) of the same molecule?
Answer: Its FICI is 0.4.

Question: What about the FICI (Candida tropicalis [7]; FLC:ZOL) of the same molecule?
Answer: Its FICI is 0.31.

Question: And the FICI (Candida tropicalis [7]; ITR:ZOL)?
Answer: The FICI was 0.31.

Question: What about the FICI (Candida tropicalis [7]; KET:ZOL) of the same molecule?
Answer: The FICI was 0.31.

Question: And the FICI (Candida tropicalis [7]; VOR:ZOL)?
Answer: Its FICI is 0.49.

Question: And the “bisphosphonate MICc” value (Candida tropicalis [7]; ZOL with 5FC)?
Answer: Its value is 64.

Question: What about the “bisphosphonate MICc” value (Candida tropicalis [7]; ZOL with AMB) of the same molecule?
Answer: Its value is 128.

Question: And the “bisphosphonate MICc” value (Candida tropicalis [7]; ZOL with CAS)?
Answer: Its value is 8.

Question: And the “bisphosphonate MICc” value (Candida tropicalis [7]; ZOL with FLC)?
Answer: The value was 32.

Question: What about the “bisphosphonate MICc” value (Candida tropicalis [7]; ZOL with ITR) of the same molecule?
Answer: Its value is 16.

Question: What about the “bisphosphonate MICc” value (Candida tropicalis [7]; ZOL with KET) of the same molecule?
Answer: Its value is 32.

Question: And the “bisphosphonate MICc” value (Candida tropicalis [7]; ZOL with VOR)?
Answer: The value was 1.

Question: And the FICI (Candida dubliniensis; 5FC:ZOL)?
Answer: The FICI was 0.56.

Question: What about the FICI (Candida dubliniensis; AMB:ZOL) of the same molecule?
Answer: The FICI was 2.

Question: What about the FICI (Candida dubliniensis; CAS:ZOL) of the same molecule?
Answer: Its FICI is 0.2.

Question: And the FICI (Candida dubliniensis; FLC:ZOL)?
Answer: The FICI was 0.42.

Question: And the FICI (Candida dubliniensis; ITR:ZOL)?
Answer: The FICI was 0.5.

Question: And the FICI (Candida dubliniensis; KET:ZOL)?
Answer: Its FICI is 0.38.

Question: What about the FICI (Candida dubliniensis; VOR:ZOL) of the same molecule?
Answer: The FICI was 0.46.

Question: And the “bisphosphonate MICc” value (Candida dubliniensis; ZOL with 5FC)?
Answer: The value was 0.25.

Question: And the “bisphosphonate MICc” value (Candida dubliniensis; ZOL with AMB)?
Answer: The value was 4.

Question: What about the “bisphosphonate MICc” value (Candida dubliniensis; ZOL with CAS) of the same molecule?
Answer: The value was 0.125.

Question: What about the “bisphosphonate MICc” value (Candida dubliniensis; ZOL with FLC) of the same molecule?
Answer: Its value is 1.

Question: What about the “bisphosphonate MICc” value (Candida dubliniensis; ZOL with ITR) of the same molecule?
Answer: The value was 1.
